# Data taken from ChEMBL document CHEMBL6134779, “Design of Proteolytic-Resistant Antifungal Peptides by Utilizing Minimum d-Amino Acid Ratios” (J Med Chem, 2024).
# Calls of active or inactive are those of the source. The calls are words filed in the database; no cut-off is given here.
# What was measured:
# Candida albicans [1] = assay: Antifungal activity against Fluconazole-resistant Candida albicans 58288 assessed as inhibition of fungal growth incubated for 48 hrs; type: functional
# Candida albicans [2] = assay: Antibiofilm activity against Candida albicans CGMCC 2.2086 assessed as eradication of mature biofilm at 4X MIC measured after 3 hrs by SYTO 9/propidium iodide staining based fluorescence microscopy; type: functional, organism-based
# Candida albicans [3] = assay: Antifungal activity against Candida albicans CGMCC 2.2086 assessed as inhibition of fungal growth incubated for 48 hrs in presence of FeCl3; type: functional
# Candida albicans [4] = assay: Antibiofilm activity against Candida albicans CGMCC 2.2086 assessed as inhibition of biofilm formation at antifungal MIC measured after 48 hrs by crystal violet staining based assay; type: functional
# Candida albicans [5] = assay: Antifungal activity against Candida albicans CGMCC 2.2086 infected in C57BL/6 mouse keratitis model assessed as reduction in clinical scores at 5 mg/ml administered as 10 uL eye drop every 5 mins for first 1 hr and every 30 mins for next 7 hrs; type: functional, organism-based; conditions: route ou, time 8.0 hrs
# Candida albicans [6] = assay: Antifungal activity against Candida albicans CGMCC 2.2086 infected in C57BL/6 mouse keratitis model assessed as reduction in mycelia in the eyes at 5 mg/ml administered as 10 uL eye drop every 5 mins for first 1 hr and every 30 mins for next 7 hrs by Schiff staining based assay; type: functional, organism-based; conditions: route ou, time 8.0 hrs
# Candida albicans [7] = assay: Antifungal activity against Candida albicans 17546 assessed as inhibition of fungal growth incubated for 48 hrs; type: functional
# Candida albicans [8] = assay: Ratio of MIC95 for antifungal activity against Candida albicans CGMCC 2.2086 in presence of MgCl2 to MIC95 for MIC95 for antifungal activity against Candida albicans CGMCC 2.2086; type: functional
# [9] = Stability of the compound in NaCl assessed as change in secondary structure by CD spectra analysis; type: physicochemical
# Candida parapsilosis = assay: Antifungal activity against Candida parapsilosis CGMCC 2.3989 assessed as inhibition of fungal growth incubated for 48 hrs; type: functional; conditions: Lodderomyces parapsilosis
# Candida albicans [10] = assay: Fungicidal activity against Candida albicans CGMCC 2.2086 measured up to 120 mins by time-kill assay; type: functional, organism-based
# Candida albicans [11] = assay: Antifungal activity against Candida albicans CGMCC 2.2086 infected in C57BL/6 mouse keratitis model assessed as reduction in fungal cell count at 5 mg/ml administered as 10 uL eye drop every 5 mins for first 1 hr and every 30 mins for next 7 hrs relative to control; type: functional; parameters: scale not given: the % may be the effect or the level left; conditions: route ou, time 8 hrs
# [12] = Stability of the compound in KCl assessed as change in secondary structure by CD spectra analysis; type: physicochemical
# Candida albicans [13] = assay: Antifungal activity against Candida albicans SP3902 assessed as inhibition of fungal growth incubated for 48 hrs; type: functional
# Candida albicans [14] = assay: Antifungal activity against Candida albicans CGMCC 2.2086 assessed as inhibition of fungal growth incubated for 2 hrs in presence of chymotrypsin; type: functional, organism-based
# [15] = Hemolytic activity in human red blood cells assessed as hemolysis incubated for 1 hr; type: toxicity, cell-based, Erythrocyte
# [16] = Hemolytic activity in human red blood cells assessed as hemolysis rate at 512 uM incubated for 1 hr relative to control; type: toxicity, cell-based, Erythrocyte; conditions: read-out: Activity
# Candida albicans [17] = assay: Antifungal activity against Fluconazole-resistant Candida albicans 56214 assessed as inhibition of fungal growth incubated for 48 hrs; type: functional
# HEK293 = assay: Cytotoxicity against HEK293 cells assessed as cell death at 64 uM measured after 8 hrs by calcein-AM and propidium iodide Live/Dead dye staining assay; type: toxicity, cell-based; conditions: human, hek293, 8 h
# Candida albicans [18] = assay: Induction of morphological changes in Candida albicans CGMCC 2.2086 assessed as separation of cell wall from plasma membrane at 1X MIC measured after 60 mins by TEM analysis; type: functional, organism-based
# Cell membrane = assay: Disruption of Candida albicans CGMCC 2.2086 cell membrane at 1X MIC measured after 1 hr by SYTO9/propidium iodide staining based fluorescence microscopic analysis; type: subcellular
# Candida albicans [19] = assay: Antifungal activity against Candida albicans CGMCC 2.2086 assessed as inhibition of fungal growth incubated for 2 hrs in presence of trypsin; type: functional, organism-based
# Candida albicans [20] = assay: Antifungal activity against Candida albicans SP3876 assessed as inhibition of fungal growth incubated for 48 hrs; type: functional
# Candida albicans [21] = assay: Antifungal activity against Candida albicans CGMCC 2.2086 assessed as inhibition of fungal growth incubated for 48 hrs in presence of NaCl; type: functional
# Candida albicans [22] = assay: Antifungal activity against Candida albicans CGMCC 2.2086 infected in C57BL/6 mouse keratitis model assessed as increase in ocular clarity at 5 mg/ml administered as 10 uL eye drop every 5 mins for first 1 hr and every 30 mins for next 7 hrs; type: functional, organism-based; conditions: route ou, time 8.0 hrs
# Candida albicans [23] = assay: Induction of Candida albicans CGMCC 2.2086 cell wall permeabilization at 16 uM by NPN probe based assay relative to control; type: functional
# [24] = Stability of the compound in CaCl2 assessed as change in secondary structure by CD spectra analysis; type: physicochemical
# [25] = Cytotoxicity against porcine IPEC-J2 cells assessed as reduction in cell viability at 128 uM incubated for 4 hrs by MTT assay; type: toxicity, cell-based, Sus scrofa; conditions: pig, ipec-j2, 4 h
# Candida albicans [26] = assay: Antifungal activity against Candida albicans CGMCC 2.2086 assessed as inhibition of fungal growth incubated for 2 to 4 hrs in presence of 100% serum; type: functional, organism-based; conditions: time 2-4 hrs
# [27] = Proteolytic stability of the compound assessed as protease K (unknown origin)-mediated drug degradation measured after 8 hrs by 16.5% tricine-SDS-PAGE analysis; type: ADME; conditions: human
# [28] = Proteolytic stability of the compound assessed as chymotrypsin (unknown origin)-mediated drug degradation measured after 8 hrs by 16.5% tricine-SDS-PAGE analysis; type: ADME; conditions: human
# Candida albicans [29] = assay: Antifungal activity against Candida albicans CGMCC 2.2086 assessed as inhibition of fungal growth incubated for 48 hrs in presence of KCl; type: functional
# Candida albicans [30] = assay: Antifungal activity against Candida albicans CGMCC 2.2086 assessed as inhibition of fungal growth incubated for 48 hrs in presence of MgCl2; type: functional
# [31] = Stability of the compound in FeCl3 assessed as change in secondary structure by CD spectra analysis; type: physicochemical
# Candida albicans [32] = assay: Antifungal activity against Candida albicans CGMCC 2.2086 assessed as inhibition of fungal growth incubated for 48 hrs in presence of ZnCl2; type: functional
# Candida albicans [33] = assay: Antifungal activity against Candida albicans SP3931 assessed as inhibition of fungal growth incubated for 48 hrs; type: functional
# [34] = Proteolytic stability of the compound assessed as chymotrypsin (unknown origin)-mediated drug degradation measured after 8 hrs by RP-HPLC analysis; type: ADME; conditions: human
# Candida tropicalis = assay: Antifungal activity against Candida tropicalis CGMCC 2.1975 assessed as inhibition of fungal growth incubated for 48 hrs; type: functional
# Candida albicans [35] = assay: Induction of morphological changes in Candida albicans CGMCC 2.2086 assessed as cell content leakage at 1X MIC measured after 60 mins by TEM analysis; type: functional, organism-based
# Candida albicans [36] = assay: Antifungal activity against Candida albicans CGMCC 2.2086 assessed as inhibition of fungal growth incubated for 48 hrs; type: functional
# Candida albicans [37] = assay: Antifungal activity against Candida albicans SP3903 assessed as inhibition of fungal growth incubated for 48 hrs; type: functional
structure (smiles),measurement,setting,value
CC[C@H](C)[C@H](N)C(=O)N[C@H](C(=O)N[C@H](CCCNC(=N)N)C(=O)N[C@@H](CCCNC(=N)N)C(=O)N[C@@H](Cc1c[nH]cn1)C(=O)N[C@H](C(=O)N[C@H](C(=O)N[C@H](C(=O)N[C@H](C(=O)N[C@H](CCCNC(=N)N)C(=O)N[C@@H](CCCNC(=N)N)C(=O)N[C@@H](Cc1c[nH]cn1)C(=O)N[C@H](C(=O)N[C@H](C(=O)N[C@H](C(=O)N[C@H](C(=O)N[C@H](CCCNC(=N)N)C(=O)N[C@@H](CCCNC(=N)N)C(=O)N[C@@H](Cc1c[nH]cn1)C(=O)N[C@H](C(=O)N[C@H](C(N)=O)[C@@H](C)CC)[C@@H](C)CC)[C@@H](C)CC)[C@@H](C)CC)[C@@H](C)CC)[C@@H](C)CC)[C@@H](C)CC)[C@@H](C)CC)[C@@H](C)CC)[C@@H](C)CC)[C@@H](C)CC,MIC95,Candida albicans [1],2 µM
same,Activity,Candida albicans [2],Active
same,MIC95,Candida albicans [3],8 µM
same,inhibition (INH),Candida albicans [4],90%
same,Activity,Candida albicans [5],Active
same,Activity,Candida albicans [6],Active; Mycelia In The Eyes Was Either Absent Or Minimal
same,MIC95,Candida albicans [7],4 µM
same,Ratio,Candida albicans [8],4
same,Stability,[9],Unstable
same,MIC95,Candida parapsilosis,4 µM
same,Activity,Candida albicans [10],Dose-dependent-effect
same,Activity,Candida albicans [11],>65%
same,Stability,[12],Stable
same,MIC95,Candida albicans [13],2 µM
same,Activity,Candida albicans [14],Active
same,HC50 at 1 h,[15],> 512 µM
same,"hemolysis at 1 h, 512 µM",[16],40.8%
same,MIC95,Candida albicans [17],4 µM
same,Activity,HEK293,Toxic
same,Activity,Candida albicans [18],Active
same,Activity,Cell membrane,Active
same,Activity,Candida albicans [19],Active
same,MIC95,Candida albicans [20],2 µM
same,MIC95,Candida albicans [21],16 µM
same,Activity,Candida albicans [22],Active
same,Activity,Candida albicans [23],>100%
same,Stability,[24],Stable
same,Activity,[25],Toxic
same,growth inhibition (GI),Candida albicans [26],Active; No Alterations In The Antimicrobial Activity Was Observed In Presence Of Serum
same,Stability,[27],Stable
same,Stability,[28],Stable
same,MIC95,Candida albicans [29],4 µM
same,MIC95,Candida albicans [30],4 µM
same,Stability,[31],Stable
same,MIC95,Candida albicans [32],4 µM
same,MIC95,Candida albicans [33],2 µM
same,Stability,[34],Stable
same,MIC95,Candida tropicalis,2 µM
same,Activity,Candida albicans [35],Active
same,MIC95,Candida albicans [36],4 µM
same,MIC95,Candida albicans [37],2 µM
